20 compounds from patent US11345711B2, “8,9-dihydroimidazo[1,2-a]pyrimido[5,4-e]pyrimidin-5(6H)-ones” (IMPACT THERAPEUTICS (SHANGHAI), INC, priority 2016, dated 2022) can be followed below.

Where two headings read alike, the source gives them in different places.

One assay addresses Wee1 (h) (Homo sapiens, UniProt P30291). The assay can be described thus: Wee1 kinase (h) detection method, [γ-33P]-ATP filter assay. The assay is classed as biochemical.
Another assay deals with LoVo cells. The assay can be described thus: MTT based cell viability assay on LoVo cells. Particulars: Homo sapiens, LoVo, 72 h, 3 d, read-out: IC50, growth inhibition of LoVo cells. Summed up: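 Inhibition of LoVo proliferation was derived as IC50 from a sigmoidal dose-response fit of cell survival. Readout was MTT (0.5 mg/mL, 4 h) with absorbance at 552/630/690 nm, after 3-day treatment at 37 °C. Eight-point series from 10 μM to 0.01 μM, DMSO control, 1% DMSO final.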

For the next assay, the system named is NCI-H1299 cells. The assay can be described thus: MTT based cell viability assay on NCI-H1299 cells. Particulars: Homo sapiens, read-out: IC50, growth inhibition of NCI-H1299 cells. The method in brief: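 NCI-H1299 cells (1000/well, settled overnight) were exposed for 3 d at 37 °C, 5% CO2, to an eight-point series of 10 μM to 0.01 μM plus DMSO blank, as prepared in DMSO (final DMSO 1‰). MTT (0.5 mg/mL, 4 h) was read at 552/630/690 nm. IC50 came from sigmoidal dose-response fits of survival.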

Wee1 (h), sequence (P30291 whole entry): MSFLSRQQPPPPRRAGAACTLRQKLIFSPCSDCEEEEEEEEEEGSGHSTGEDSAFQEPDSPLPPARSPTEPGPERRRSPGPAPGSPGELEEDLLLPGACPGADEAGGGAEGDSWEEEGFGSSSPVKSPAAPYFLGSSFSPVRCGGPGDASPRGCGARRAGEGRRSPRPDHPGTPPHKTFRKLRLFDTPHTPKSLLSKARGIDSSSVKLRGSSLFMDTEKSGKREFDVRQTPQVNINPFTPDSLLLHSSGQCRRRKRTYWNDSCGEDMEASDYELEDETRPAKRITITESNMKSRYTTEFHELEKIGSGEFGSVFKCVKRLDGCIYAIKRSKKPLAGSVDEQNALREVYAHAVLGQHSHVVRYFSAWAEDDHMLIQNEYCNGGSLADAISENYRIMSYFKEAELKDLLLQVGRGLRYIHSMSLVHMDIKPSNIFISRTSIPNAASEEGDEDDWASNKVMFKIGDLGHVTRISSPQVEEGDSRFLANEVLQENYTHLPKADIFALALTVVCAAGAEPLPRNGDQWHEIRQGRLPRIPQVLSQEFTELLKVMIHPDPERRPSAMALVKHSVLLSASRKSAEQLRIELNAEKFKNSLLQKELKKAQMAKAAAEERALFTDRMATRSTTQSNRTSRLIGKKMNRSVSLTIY

For `CN1CCN(c2ccc(Nc3ncc4c(n3)N3CCN=C3N(c3cccc(Cl)c3)C4=O)cc2)CC1` [Example 86, 6-(3-Chlorophenyl)-2-((4-(4-methylpiperazin-1-yl)phenyl)amino)-8,9-dihydroimidazo[1,2-a]pyrimido[5,4-e]pyrimidin-5(6H)-one], the “Inh. (%) of Wee1 kinase enzyme activity” value on Wee1 (h) (C 1 μm compound) came to 13%. The IC50 (as a rule, the concentration that inhibits the measured activity by half) in the assay with LoVo cells is more than 100000 nM; in the assay with NCI-H1299 cells (NCI-H1299 cells) it was more than 10000 nM.
On to `CN1CCN(c2ccc(Nc3ncc4c(n3)N3CCN=C3N(c3ccc(Cl)cc3Cl)C4=O)cc2)CC1` [Example 87, 6-(2,4-Dichlorophenyl)-2-((4-(4-methylpiperazin-1-yl)phenyl)amino)-8,9-dihydroimidazo[1,2-a]pyrimido[5,4-e]pyrimidin-5(6H)-one], for which, at Wee1 (h) (C 1 μm compound), the “Inh. (%) of Wee1 kinase enzyme activity” value is 75%. Also, the results for the IC50 with LoVo cells and in the assay on NCI-H1299 cells (NCI-H1299 cells) were more than 100000 nM and more than 10000 nM, respectively.
In the case of `CN1CCN(c2ccc(Nc3ncc4c(n3)N3CCN=C3N(c3ccc(F)cc3Cl)C4=O)cc2)CC1` [Example 88, 6-(2-Chloro-4-fluorophenyl)-2-((4-(4-methylpiperazin-1-yl)phenyl)amino)-8,9-dihydroimidazo[1,2-a]pyrimido[5,4-e]pyrimidin-5(6H)-one], the “Inh. (%) of Wee1 kinase enzyme activity” value at Wee1 (h) (C 1 μm compound) is 75%. The concentration for half-maximal inhibition (IC50) is more than 100000 nM in the assay with LoVo cells and more than 3000 nM in the assay on NCI-H1299 cells (NCI-H1299 cells).
`CN1CCN(c2ccc(Nc3ncc4c(n3)N3CCN=C3N(c3cccc(F)c3Cl)C4=O)cc2)CC1` [Example 89, 6-(2-Chloro-3-fluorophenyl)-2-((4-(4-methylpiperazin-1-yl)phenyl)amino)-8,9-dihydroimidazo[1,2-a]pyrimido[5,4-e]pyrimidin-5(6H)-one]: the “Inh. (%) of Wee1 kinase enzyme activity” value on Wee1 (h) (C 1 μm compound) stood at 89%. For the same compound, the IC50 in the assay with LoVo cells stood at 220 nM; with NCI-H1299 cells (NCI-H1299 cells), 957 nM.
Take `CN1CCN(c2ccc(Nc3ncc4c(n3)N3CCN=C3N(c3cc(Cl)ccc3Cl)C4=O)cc2)CC1` [Example 90, 6-(2,5-Dichlorophenyl)-2-((4-(4-methylpiperazin-1-yl)phenyl)amino)-8,9-dihydroimidazo[1,2-a]pyrimido[5,4-e]pyrimidin-5(6H)-one]: the “Inh. (%) of Wee1 kinase enzyme activity” value on Wee1 (h) (C 1 μm compound) is reported as 29%. The figures for the IC50 with LoVo cells and with NCI-H1299 cells (NCI-H1299 cells) were 1310 nM and more than 10000 nM, respectively.
On to `CN1CCN(c2ccc(Nc3ncc4c(n3)N3CCN=C3N(c3cccc(Cl)c3Cl)C4=O)cc2)CC1` [Example 91, 6-(2,3-Dichlorophenyl)-2-((4-(4-methylpiperazin-1-yl)phenyl)amino)-8,9-dihydroimidazo[1,2-a]pyrimido[5,4-e]pyrimidin-5(6H)-one], for which, on Wee1 (h) (C 1 μm compound), the “Inh. (%) of Wee1 kinase enzyme activity” value came out at 75%. The concentration for half-maximal inhibition (IC50) is 185 nM with LoVo cells and 2360 nM in the assay on NCI-H1299 cells (NCI-H1299 cells).
Consider `CN1CCN(c2ccc(Nc3ncc4c(n3)N3CCN=C3N(c3ncccn3)C4=O)cc2)CC1` [Example 92, 6-(Pyrimidin-2-yl)-2-((4-(4-methylpiperazin-1-yl)phenyl)amino)-8,9-dihydroimidazo[1,2-a]pyrimido[5,4-e]pyrimidin-5(6H)-one], for which the “Inh. (%) of Wee1 kinase enzyme activity” value on Wee1 (h) (C 1 μm compound) is reported as 1%. Further, the IC50 in the assay with LoVo cells was more than 100000 nM; in the assay with NCI-H1299 cells (NCI-H1299 cells), more than 10000 nM.
Turning to `CN1CCN(c2ccc(Nc3ncc4c(n3)N3CCN=C3NC4=O)cc2)CC1` [Example 93, 2-((4-(4-Methylpiperazin-1-yl)phenyl)amino)-8,9-dihydroimidazo[1,2-a]pyrimido[5,4-e]pyrimidin-5(6H)-one], the “Inh. (%) of Wee1 kinase enzyme activity” value at Wee1 (h) (C 1 μm compound) came to 0%. In addition, the values for the IC50 in the assay on LoVo cells and with NCI-H1299 cells (NCI-H1299 cells) were more than 100000 nM and more than 10000 nM, respectively.
For `CN1CCN(c2ccc(Nc3ncc4c(n3)N3CCN=C3N(C3CCC3)C4=O)cc2)CC1` [Example 94, 6-Cyclobutyl-2-((4-(4-methylpiperazin-1-yl)phenyl)amino)-8,9-dihydroimidazo[1,2-a]pyrimido[5,4-e]pyrimidin-5(6H)-one], in that order: 19%, 1910 nM and 2390 nM.
Take `CN1CCN(c2ccc(Nc3ncc4c(n3)N3CCN=C3N(C3CCCC3)C4=O)cc2)CC1` [Example 95, 6-Cyclopentyl-2-((4-(4-methylpiperazin-1-yl)phenyl)amino)-8,9-dihydroimidazo[1,2-a]pyrimido[5,4-e]pyrimidin-5(6H)-one]: the “Inh. (%) of Wee1 kinase enzyme activity” value at Wee1 (h) (C 1 μm compound) turned out to be 8%. Also, the values for the 50% inhibitory concentration (IC50) in the assay with LoVo cells and in the assay on NCI-H1299 cells (NCI-H1299 cells) were 1880 nM and 2130 nM, respectively.
Consider `CN1CCN(c2ccc(Nc3ncc4c(n3)N3CCN=C3N(c3ccccc3)C4=O)cc2)CC1` [Example 96, 6-Phenyl-2-((4-(4-methylpiperazin-1-yl)phenyl)amino)-8,9-dihydroimidazo[1,2-a]pyrimido[5,4-e]pyrimidin-5(6H)-one], for which the “Inh. (%) of Wee1 kinase enzyme activity” value at Wee1 (h) (C 1 μm compound) was determined as 29%. Further, the IC50 in the assay with LoVo cells is more than 100000 nM; with NCI-H1299 cells (NCI-H1299 cells) it was more than 10000 nM.
For `CN1CCN(c2ccc(Nc3ncc4c(n3)N3CCN=C3N(c3ccccn3)C4=O)cc2)CC1` [Example 97, 6-(Pyridin-2-yl)-2-((4-(4-methylpiperazin-1-yl)phenyl)amino)-8,9-dihydroimidazo[1,2-a]pyrimido[5,4-e]pyrimidin-5(6H)-one], in that order: 9%, more than 100000 nM and more than 10000 nM.
Take `CN1CCN(c2ccc(Nc3ncc4c(n3)N3CCN=C3N(c3cccnc3)C4=O)cc2)CC1` [Example 98, 6-(Pyridin-3-yl)-2-((4-(4-methylpiperazin-1-yl)phenyl)amino)-8,9-dihydroimidazo[1,2-a]pyrimido[5,4-e]pyrimidin-5(6H)-one]: the “Inh. (%) of Wee1 kinase enzyme activity” value on Wee1 (h) (C 1 μm compound) was found to be 2%. Also, the figures for the IC50 with LoVo cells and in the assay on NCI-H1299 cells (NCI-H1299 cells) were more than 100000 nM and more than 10000 nM, respectively.
Regarding `CN1CCN(c2ccc(Nc3ncc4c(n3)N3CCN=C3N(c3ccncc3)C4=O)cc2)CC1` [Example 99, 6-(Pyridin-4-yl)-2-((4-(4-methylpiperazin-1-yl)phenyl)amino)-8,9-dihydroimidazo[1,2-a]pyrimido[5,4-e]pyrimidin-5(6H)-one], at Wee1 (h) (C 1 μm compound), the “Inh. (%) of Wee1 kinase enzyme activity” value was 8%. Further, the 50% inhibitory concentration (IC50) in the assay on LoVo cells is more than 100000 nM; in the assay on NCI-H1299 cells (NCI-H1299 cells), more than 10000 nM.
As to `CN1CCN(c2ccc(Nc3ncc4c(n3)N3CCN=C3N(c3c(F)cccc3F)C4=O)cc2Cl)CC1` [Example 100, 6-(2,6-Difluorophenyl)-2-((3-chloro-4-(4-methylpiperazin-1-yl)phenyl)amino)-8,9-dihydroimidazo[1,2-a]pyrimido[5,4-e]pyrimidin-5(6H)-one], at Wee1 (h) (C 1 μm compound), the “Inh. (%) of Wee1 kinase enzyme activity” value is given as 87%. For the same compound, the concentration for half-maximal inhibition (IC50) came out at 172 nM with LoVo cells and 532 nM in the assay with NCI-H1299 cells (NCI-H1299 cells).
Consider `Cc1cc(Nc2ncc3c(n2)N2CCN=C2N(c2c(F)cccc2F)C3=O)cc(C)c1N1CCN(C)CC1` [Example 101, 6-(2,6-Difluorophenyl)-2-((3,5-dimethyl-4-(4-methylpiperazin-1-yl)phenyl)amino)-8,9-dihydroimidazo[1,2-a]pyrimido[5,4-e]pyrimidin-5(6H)-one], for which the “Inh. (%) of Wee1 kinase enzyme activity” value was found to be 22% on Wee1 (h) (C 0.01 μm compound), 70% at Wee1 (h) (C 0.1 μm compound) and 95% at Wee1 (h) (C 1 μm compound). Also, the IC50 was 95.4 nM in the assay on LoVo cells and 214 nM in the assay on NCI-H1299 cells (NCI-H1299, NCI-H1299 cells).
In the case of `O=C1c2cnc(Nc3ccc(-n4ccnc4)cc3)nc2N2CCN=C2N1c1c(F)cccc1Cl` [Example 102, 6-(2-Chloro-6-fluorophenyl)-2-((4-(1H-imidazol-1-yl)phenyl)amino)-8,9-dihydroimidazo[1,2-a]pyrimido[5,4-e]pyrimidin-5(6H)-one], the “Inh. (%) of Wee1 kinase enzyme activity” value at Wee1 (h) (C 1 μm compound) was determined as 7%. Further, the IC50 in the assay with LoVo cells is more than 100000 nM; in the assay on NCI-H1299 cells (NCI-H1299 cells), more than 10000 nM.
As for `CN1CCCN(c2ccc(Nc3ncc4c(n3)N3CCN=C3N(c3c(F)cccc3Cl)C4=O)cc2)CC1` [Example 103, 6-(2-Chloro-6-fluorophenyl)-2-((4-(4-methyl-1,4-diazepan-1-yl)phenyl)amino)-8,9-dihydroimidazo[1,2-a]pyrimido[5,4-e]pyrimidin-5(6H)-one], the “Inh. (%) of Wee1 kinase enzyme activity” value at Wee1 (h) (C 0.01 μm compound) was 30%; on Wee1 (h) (C 0.1 μm compound), 70%; at Wee1 (h) (C 1 μm compound) it was 92%. Moreover, the IC50 is 678 nM with LoVo cells and 1050 nM with NCI-H1299 cells (NCI-H1299 cells).
Regarding `CN1CCN(Cc2ccc(Nc3ncc4c(n3)N3CCN=C3N(c3c(F)cccc3Cl)C4=O)cc2)CC1` [Example 104, 6-(2-Chloro-6-fluorophenyl)-2-((4-((4-methylpiperazin-1-yl)methyl)phenyl)amino)-8,9-dihydroimidazo[1,2-a]pyrimido[5,4-e]pyrimidin-5(6H)-one], the “Inh. (%) of Wee1 kinase enzyme activity” value on Wee1 (h) (C 1 μm compound) came to 93%. The figures for the concentration for half-maximal inhibition (IC50) in the assay on LoVo cells and in the assay on NCI-H1299 cells (NCI-H1299 cells) were 460 nM and 1050 nM, respectively.
In the case of `CN(C)CCOc1ccc(Nc2ncc3c(n2)N2CCN=C2N(c2c(F)cccc2Cl)C3=O)cc1` [Example 105, 6-(2-Chloro-6-fluorophenyl)-2-((4-(2-(dimethylamino)ethoxy)phenyl)amino)-8,9-dihydroimidazo[1,2-a]pyrimido[5,4-e]pyrimidin-5(6H)-one], the “Inh. (%) of Wee1 kinase enzyme activity” value on Wee1 (h) (C 0.01 μm compound) worked out at 40%; on Wee1 (h) (C 0.1 μm compound), 85%; on Wee1 (h) (C 1 μm compound), 97%. Also, the IC50 with LoVo cells was 373 nM; in the assay on NCI-H1299 cells (NCI-H1299 cells), 911 nM.
